Source: patent US8475783B2, “Apparatus and method for generating carbon dioxide as an attractant for biting arthropods” (priority 2011, dated 2013)

Tested on: mosquitoes
Experiment: Field mosquito collection with CDC-type mosquito trap baited with carbon dioxide
Assay type: in vivo
Settings: for mosquitoes collected: carbon dioxide flow rate 250 mL/min
Procedure: As in Example 2, except that the sodium bicarbonate was delivered at 0.94 g·min so as to give a carbon dioxide flow rate of 250 mL/min. The gas outlet was coupled to a CDC-type mosquito trap, available from the John W. Hock Company of Gainesville Fla., and allowed to collect mosquitoes for 12 hours. For comparison, a similar trap but with carbon dioxide from a tank was placed about 100 m away. Sites were selected so as to provide a testing area that is known to be infested by mosquitoes and to provide similar terrain. In the comparison apparatus care was taken to use the same carbon dioxide flow rate.

`O=C=O` [CO2 Gas Tank, carbon dioxide] showed a mosquitoes collected (Aug. 2, 2010, 12 hours) of 12, a mosquitoes collected (Aug. 5, 2010, 12 hours) of 1 and a mosquitoes collected (Jul. 8, 2010, 12 hours) of 73. For the same compound, the mosquitoes collected (Jul. 12, 2010, 12 hours) was 49, the mosquitoes collected (Jul. 14, 2010, 12 hours) was 14 and the mosquitoes collected (Jul. 15, 2010, 12 hours) was 73. It also gave a mosquitoes collected (Jul. 20, 2010, 12 hours) of 53, a mosquitoes collected (Jun. 23, 2010, 12 hours) of 99 and a mosquitoes collected (Jun. 29, 2010, 12 hours) of 34. For the same compound, the “Total collected (mosquitoes)” value (sum over 9 non-consecutive days, 12 hours each, 250 mL/min carbon dioxide) was 408.
